Series [1] deals with adrenergic beta-2 receptors. In words: Down-regulation of adrenergic beta-2 receptors, receptor binding on adipocytes. The format is in vivo. The note with it: rats. The source says: The populations of adrenergic beta-2 receptors on cells (adipocytes) from rats are studied.
Another series has as its system barnacle naupii. The note with it: cited from earlier work.
The subject of another series is mice. In words: Stress-induced mortality (modified physostigmine-induced lethality test). The format is in vivo. The text has this:
A modification of the physostigmine-induced lethality test that successfully was used for testing of sedation by Schering in the loratadine project (Villani F. J., et al., U.S. Pat. No. 4,659,716, 1987) and by Sepracor in the desloratadine project (Aberg, G. et al. U.S. Pat. No. 5,595,997) was used. In short, mice that previously had not been housed together, suffer from severe stress when placed together (n=10) in a new environment, such as a small cage with which they are not familiar. […] Similarly, increased stress by ractopamine in livestock animals has been reported by Marchant-Forde et al., 2003. […] The number of surviving mice was counted 30 minutes after the animals had been placed in the test-cage, which was 60 min after the administration of ractopamine.

In a further series the test system is newborn calves. Kind of series: In vivo study in newborn calves (survival to weaning). The arrangement: species or system cattle. The protocol:
The present study was performed at a farm with a high rate of mortality of newborn calves from Cryptosporidiosis and upper respiratory infections.
Two groups of 13 newborn calves were studied. All animals were given milk replacement and beta 1.3/1.6 D-glucan was added to the milk replacement for the second group.

Consider `CC(C)(C)NCC(O)c1ccc(O)c(CO)c1` (racemic) [salbutamol], for which, in series [1] (one and two weeks continuous s.c. administration by Alza osmotic pumps), the “adrenergic beta-2 receptor population on adipocytes” value is recorded as “down-regulated”. Moreover, the LD50 entry in the series with barnacle naupii is recorded as “approximately 1.8 μg/ml”.

On to `CNC(=O)Oc1ccc2c(c1)[C@]1(C)CCN(C)[C@@H]1N2C` [physostigmine], for which the lethality in the series with mice (stressed grouped mice (n=10), 1.0 mg/kg s.c.) is listed as about 100%.

For `CC(CCc1ccc(O)cc1)NCC(O)c1ccc(O)cc1` (stereo not drawn) [ractopamine], the stress result in the series on mice (grouped mice in unfamiliar cage) is recorded as “increased the stress”. The mortality result with mice (mice given a sub-lethal dose of physostigmine) is recorded as “increased mortality”.

Turning to beta 1.3/1.6 D-glucan [Agrastim®], in the series with newborn calves (8 weeks treatment in milk replacement, control 7 out of 13), the survival of calves is given as 12 out of 13. Moreover, the “Calves Weaned” value in the series with newborn calves (13 calves born, 500 mg day 1, 250 mg/day day 2-56 in milk replacement, farm with high calf mortality) came to 12. Further, in series [1] (glucan given one week before pump implantation and continuously thereafter), the “effect on salbutamol-induced down-regulation of adrenergic beta-2 receptors” value is listed as “decreased or inhibited”. In addition, in the series with mice (mice pretreated orally daily for five days, survivors counted 30 min after placing in test-cage, 60 min after ractopamine), the “stress and stress-induced mortality in ractopamine-treated animals” value was “significantly decreased stress and stress-induced mortality”.

Values taken from patent US20090054338A1, “Synergisms between repartitioning and immunomodulating compounds” (priority 2007, published 2009).
